Source: article PMC6979384, “Characterization of the plant homeodomain (PHD) reader family for their histone tail interactions” (Epigenetics & Chromatin, 2020)

Assays:
Assay in all cases: Histone peptide microarray
Type in all cases: binding, human
DIDO1 = tested on: DIDO1
Method in brief: (§1)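 Mean ± SD of 4 replicate array intensities; GST-PHD finger at 0.5 μM against 293 PTM-bearing histone peptides.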

ING3 = tested on: ING3
Method in brief: as §1

KDM5A (1) = tested on: KDM5A (1)
Method in brief: as §1

MLL5 = tested on: MLL5
Method in brief: as §1

BPTF (PB) = tested on: BPTF (PB)
Method in brief: as §1

CHD5 (PCC) = tested on: CHD5 (PCC)
Method in brief: as §1

PHF2 = tested on: PHF2
Method in brief: as §1

KDM5A (3) = tested on: KDM5A (3)
Method in brief: as §1

KDM7A = tested on: KDM7A
Method in brief: as §1

PHF23 = tested on: PHF23
Method in brief: as §1

AIRE (PP) = tested on: AIRE (PP)
Method in brief: as §1

RAG2 = tested on: RAG2
Method in brief: as §1

ING5 = tested on: ING5
Method in brief: as §1

PHF8 = tested on: PHF8
Method in brief: as §1

DPF2 (PPC2W2) = tested on: DPF2 (PPC2W2)
Method in brief: as §1

PHRF1 (RP) = tested on: PHRF1 (RP)
Method in brief: as §1

BAZ2B = tested on: BAZ2B
Method in brief: as §1

KDM5B (1) = tested on: KDM5B (1)
Method in brief: as §1

KDM5B (3) = tested on: KDM5B (3)
Method in brief: as §1

CHD4 (PPCC) = tested on: CHD4 (PPCC)
Method in brief: as §1

PHF13 = tested on: PHF13
Method in brief: as §1

ING2 = tested on: ING2
Method in brief: as §1

ING1 = tested on: ING1
Method in brief: as §1

TAF3 = tested on: TAF3
Method in brief: as §1

MORC3 (CW) = tested on: MORC3 (CW)
Method in brief: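 Each reader, produced as a GST fusion and purified, was tested at 0.5 μM on synthetic histone peptides (293 in total) carrying single or combinatorial marks. Intensities averaged over four replicates.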

SP140L = tested on: SP140L
Method in brief: as §1

CHD5 (PPCC) = tested on: CHD5 (PPCC)
Method in brief: as §1

KDM4C (TTP) = tested on: KDM4C (TTP)
Method in brief: as §1

TRIM66 (PB) = tested on: TRIM66 (PB)
Method in brief: as §1

PHF21A = tested on: PHF21A
Method in brief: as §1

ING4 = tested on: ING4
Method in brief: as §1

Substance: H4K20me3 (1-23): H4 1-23
- Array Heatmap value (peptide array signal) (DIDO1; DIDO1, sheet "Array Heatmap", each array performed twice, total n = 4): 0.6567
- Array Heatmap value (peptide array signal) (ING3; ING3, sheet "Array Heatmap", each array performed twice, total n = 4): 0.465
- Array Heatmap value (peptide array signal) (KDM5A (1); KDM5A (1), sheet "Array Heatmap", each array performed twice, total n = 4): 0.4224
- Array Heatmap value (peptide array signal) (MLL5; MLL5, sheet "Array Heatmap", each array performed twice, total n = 4): 0.5073
- Array Heatmap value (peptide array signal) (BPTF (PB); BPTF (PB), sheet "Array Heatmap", each array performed twice, total n = 4): 0.3468
- Array Heatmap value (peptide array signal) (CHD5 (PCC); CHD5 (PCC), sheet "Array Heatmap", each array performed twice, total n = 4): 0.7553
- Array Heatmap value (peptide array signal) (PHF2; PHF2, sheet "Array Heatmap", each array performed twice, total n = 4): 0.4783
- Array Heatmap value (peptide array signal) (KDM5A (3); KDM5A (3), sheet "Array Heatmap", each array performed twice, total n = 4): 0.4449
- Array Heatmap value (peptide array signal) (KDM7A; KDM7A, sheet "Array Heatmap", each array performed twice, total n = 4): 0.329
- Array Heatmap value (peptide array signal) (PHF23; PHF23, sheet "Array Heatmap", each array performed twice, total n = 4): 0.5181
- Array Heatmap value (peptide array signal) (AIRE (PP); AIRE (PP), sheet "Array Heatmap", each array performed twice, total n = 4): 0.4048
- Array Heatmap value (peptide array signal) (RAG2; RAG2, sheet "Array Heatmap", each array performed twice, total n = 4): 0.2424
- Array Heatmap value (peptide array signal) (ING5; ING5, sheet "Array Heatmap", each array performed twice, total n = 4): 0.3228
- Array Heatmap value (peptide array signal) (PHF8; PHF8, sheet "Array Heatmap", each array performed twice, total n = 4): 0.3429
- Array Heatmap value (peptide array signal) (DPF2 (PPC2W2); DPF2 (PPC2W2), sheet "Array Heatmap", each array performed twice, total n = 4): 0.6148
- Array Heatmap value (peptide array signal) (PHRF1 (RP); PHRF1 (RP), sheet "Array Heatmap", each array performed twice, total n = 4): 0.4228
- Array Heatmap value (peptide array signal) (BAZ2B; BAZ2B, sheet "Array Heatmap", each array performed twice, total n = 4): 0.4188
- Array Heatmap value (peptide array signal) (KDM5B (1); KDM5B (1), sheet "Array Heatmap", each array performed twice, total n = 4): 0.6332
- Array Heatmap value (peptide array signal) (KDM5B (3); KDM5B (3), sheet "Array Heatmap", each array performed twice, total n = 4): 0.4599
- Array Heatmap value (peptide array signal) (CHD4 (PPCC); CHD4 (PPCC), sheet "Array Heatmap", each array performed twice, total n = 4): 0.5546
- Array Heatmap value (peptide array signal) (PHF13; PHF13, sheet "Array Heatmap", each array performed twice, total n = 4): 0.5943
- Array Heatmap value (peptide array signal) (ING2; ING2, sheet "Array Heatmap", each array performed twice, total n = 4): 0.5794
- Array Heatmap value (peptide array signal) (ING1; ING1, sheet "Array Heatmap", each array performed twice, total n = 4): 0.5131
- Array Heatmap value (peptide array signal) (TAF3; TAF3, sheet "Array Heatmap", each array performed twice, total n = 4): 0.2546
- Array Heatmap value (peptide array signal) (MORC3 (CW); MORC3 (CW), sheet "Array Heatmap", each array performed twice, total n = 4): 0.3692
- Array Heatmap value (peptide array signal) (SP140L; SP140L, sheet "Array Heatmap", each array performed twice, total n = 4): 0.3602
- Array Heatmap value (peptide array signal) (CHD5 (PPCC); CHD5 (PPCC), sheet "Array Heatmap", each array performed twice, total n = 4): 0.5147
- Array Heatmap value (peptide array signal) (KDM4C (TTP); KDM4C (TTP), sheet "Array Heatmap", each array performed twice, total n = 4): 0.4703
- Array Heatmap value (peptide array signal) (TRIM66 (PB); TRIM66 (PB), sheet "Array Heatmap", each array performed twice, total n = 4): 0.5898
- Array Heatmap value (peptide array signal) (PHF21A; PHF21A, sheet "Array Heatmap", each array performed twice, total n = 4): 0.4514
- Array Heatmap value (peptide array signal) (ING4; ING4, sheet "Array Heatmap", each array performed twice, total n = 4): 0.4304

Substance: H4R3me2a: H4 1-23 [Peptide H4R3me2a]
- Array Heatmap signal, DIDO1 (DIDO1; GST-tagged DIDO1, histone peptide array, arrays performed twice, n of 4): 0.7103
- Array Heatmap signal, ING3 (ING3; GST-tagged ING3, histone peptide array, arrays performed twice, n of 4): 0.4883
- Array Heatmap signal, KDM5A (1) (KDM5A (1); GST-tagged KDM5A (1), histone peptide array, arrays performed twice, n of 4): 0.4898
- Array Heatmap signal, MLL5 (MLL5; GST-tagged MLL5, histone peptide array, arrays performed twice, n of 4): 0.6462
- Array Heatmap signal, BPTF (PB) (BPTF (PB); GST-tagged BPTF (PB = PHD + Bromodomain), histone peptide array, arrays performed twice, n of 4): 0.3886
- Array Heatmap signal, CHD5 (PCC) (CHD5 (PCC); GST-tagged CHD5 (PCC = PHD + Dual Chromodomain), histone peptide array, arrays performed twice, n of 4): 0.8242
- Array Heatmap signal, PHF2 (PHF2; GST-tagged PHF2, histone peptide array, arrays performed twice, n of 4): 0.4976
- Array Heatmap signal, KDM5A (3) (KDM5A (3); GST-tagged KDM5A (3), histone peptide array, arrays performed twice, n of 4): 0.5304
- Array Heatmap signal, KDM7A (KDM7A; GST-tagged KDM7A, histone peptide array, arrays performed twice, n of 4): 0.5968
- Array Heatmap signal, PHF23 (PHF23; GST-tagged PHF23, histone peptide array, arrays performed twice, n of 4): 0.5402
- Array Heatmap signal, AIRE (PP) (AIRE (PP); GST-tagged AIRE (PP), histone peptide array, arrays performed twice, n of 4): 0.5327
- Array Heatmap signal, RAG2 (RAG2; GST-tagged RAG2, histone peptide array, arrays performed twice, n of 4): 0.3803
- Array Heatmap signal, ING5 (ING5; GST-tagged ING5, histone peptide array, arrays performed twice, n of 4): 0.4061
- Array Heatmap signal, PHF8 (PHF8; GST-tagged PHF8, histone peptide array, arrays performed twice, n of 4): 0.391
- Array Heatmap signal, DPF2 (PPC2W2) (DPF2 (PPC2W2); GST-tagged DPF2 (PPC2W2 = Dual PHD + C2W2-type Zn-finger), histone peptide array, arrays performed twice, n of 4): 0.6681
- Array Heatmap signal, PHRF1 (RP) (PHRF1 (RP); GST-tagged PHRF1 (RP), histone peptide array, arrays performed twice, n of 4): 0.4379
- Array Heatmap signal, BAZ2B (BAZ2B; GST-tagged BAZ2B, histone peptide array, arrays performed twice, n of 4): 0.5399
- Array Heatmap signal, KDM5B (1) (KDM5B (1); GST-tagged KDM5B (1), histone peptide array, arrays performed twice, n of 4): 0.6754
- Array Heatmap signal, KDM5B (3) (KDM5B (3); GST-tagged KDM5B (3), histone peptide array, arrays performed twice, n of 4): 0.6206
- Array Heatmap signal, CHD4 (PPCC) (CHD4 (PPCC); GST-tagged CHD4 (PPCC = Dual PHD + Dual Chromodomain), histone peptide array, arrays performed twice, n of 4): 0.544
- Array Heatmap signal, PHF13 (PHF13; GST-tagged PHF13, histone peptide array, arrays performed twice, n of 4): 0.6445
- Array Heatmap signal, ING2 (ING2; GST-tagged ING2, histone peptide array, arrays performed twice, n of 4): 0.6586
- Array Heatmap signal, ING1 (ING1; GST-tagged ING1, histone peptide array, arrays performed twice, n of 4): 0.5321
- Array Heatmap signal, TAF3 (TAF3; GST-tagged TAF3, histone peptide array, arrays performed twice, n of 4): 0.3922
- Array Heatmap signal, MORC3 (CW) (MORC3 (CW); GST-tagged MORC3 (CW = CW-type Zn-finger), histone peptide array, arrays performed twice, n of 4): 0.3932
- Array Heatmap signal, SP140L (SP140L; GST-tagged SP140L, histone peptide array, arrays performed twice, n of 4): 0.3676
- Array Heatmap signal, CHD5 (PPCC) (CHD5 (PPCC); GST-tagged CHD5 (PPCC = Dual PHD + Dual Chromodomain), histone peptide array, arrays performed twice, n of 4): 0.5601
- Array Heatmap signal, KDM4C (TTP) (KDM4C (TTP); GST-tagged KDM4C (TTP = Tandem Tudor domain + PHD), histone peptide array, arrays performed twice, n of 4): 0.5587
- Array Heatmap signal, TRIM66 (PB) (TRIM66 (PB); GST-tagged TRIM66 (PB = PHD + Bromodomain), histone peptide array, arrays performed twice, n of 4): 0.665
- Array Heatmap signal, PHF21A (PHF21A; GST-tagged PHF21A, histone peptide array, arrays performed twice, n of 4): 0.4696
- Array Heatmap signal, ING4 (ING4; GST-tagged ING4, histone peptide array, arrays performed twice, n of 4): 0.4842
